Data from publication PMC3946379 (Archives of biochemistry and biophysics, 2013).

Molecular target: Aspartate aminotransferase (AAT) (Escherichia coli, UniProt P00509)
Experiment: N-15 NMR of crystalline enzyme
Assay type: binding
Conditions: PLP form, low pH; closed conformation; own earlier work reviewed

Aspartate aminotransferase (AAT), sequence (P00509 whole entry): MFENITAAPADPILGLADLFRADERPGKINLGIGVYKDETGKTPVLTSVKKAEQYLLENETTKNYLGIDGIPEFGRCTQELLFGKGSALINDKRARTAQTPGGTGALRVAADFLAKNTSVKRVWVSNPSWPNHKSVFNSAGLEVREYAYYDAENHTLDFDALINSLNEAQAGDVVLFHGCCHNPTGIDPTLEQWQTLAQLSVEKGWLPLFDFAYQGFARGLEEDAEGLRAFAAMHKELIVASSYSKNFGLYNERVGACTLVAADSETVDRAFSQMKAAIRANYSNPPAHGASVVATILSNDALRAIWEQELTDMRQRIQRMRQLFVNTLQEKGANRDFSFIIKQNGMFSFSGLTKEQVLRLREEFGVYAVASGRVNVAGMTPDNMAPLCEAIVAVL

SMILES: O=C(O)/C=C\C(=O)O [maleate]
- N-15 NMR of crystalline enzyme: In crystalline samples of both the unliganded and maleate-liganded enzyme forms at low pH
